{"source": "paper PMC6199744", "about": "“Development of Chemical Proteomics for the Folateome and Analysis of the Kinetoplastid Folateome” (ACS Infectious Diseases, 2018)", "type_in_all_cases": "binding", "key": {"[1]": {"target": "T1, HeLa cell extract proteins (Homo sapiens, UniProt O00767)", "T1 construct": "endogenous in cells; host or cells: HeLa cell extract", "T1 sequence (O00767 1-359)": "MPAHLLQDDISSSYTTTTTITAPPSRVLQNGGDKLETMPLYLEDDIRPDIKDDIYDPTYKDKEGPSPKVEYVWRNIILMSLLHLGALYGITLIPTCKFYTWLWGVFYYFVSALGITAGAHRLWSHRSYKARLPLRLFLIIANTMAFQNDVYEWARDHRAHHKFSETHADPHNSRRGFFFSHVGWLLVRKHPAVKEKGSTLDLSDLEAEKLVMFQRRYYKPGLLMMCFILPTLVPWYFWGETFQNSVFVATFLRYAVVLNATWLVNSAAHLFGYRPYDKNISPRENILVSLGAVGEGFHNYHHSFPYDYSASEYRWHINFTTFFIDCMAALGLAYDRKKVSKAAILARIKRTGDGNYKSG", "settings": "captured protein SCD; HeLa"}, "[2]": {"target": "T2, HeLa cell extract proteins (Homo sapiens, UniProt Q8WUK0)", "T2 construct": "endogenous in cells; host or cells: HeLa cell extract", "T2 sequence (Q8WUK0 28-201)": "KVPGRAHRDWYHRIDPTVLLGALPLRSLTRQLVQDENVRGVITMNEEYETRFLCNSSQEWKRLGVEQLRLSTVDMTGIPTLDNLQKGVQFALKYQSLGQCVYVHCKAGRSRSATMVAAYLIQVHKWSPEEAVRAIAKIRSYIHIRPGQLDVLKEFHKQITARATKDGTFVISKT", "settings": "captured protein PTPMT1; HeLa"}, "[3]": {"target": "T3, HeLa cell extract proteins (Homo sapiens, UniProt P09429)", "T3 construct": "endogenous in cells; host or cells: HeLa cell extract", "T3 sequence (P09429 1-215)": "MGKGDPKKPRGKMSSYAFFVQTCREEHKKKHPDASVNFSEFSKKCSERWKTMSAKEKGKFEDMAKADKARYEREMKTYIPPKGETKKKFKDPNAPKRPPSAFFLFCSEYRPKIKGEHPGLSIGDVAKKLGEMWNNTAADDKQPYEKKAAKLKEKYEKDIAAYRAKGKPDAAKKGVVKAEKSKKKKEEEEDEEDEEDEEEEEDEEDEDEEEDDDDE", "settings": "HeLa; protein HMGB1 (HIGH MOBILITY GROUP PROTEIN B1.)"}, "[4]": {"target": "T4, HeLa cell extract proteins (Homo sapiens, UniProt P41250)", "T4 construct": "endogenous in cells; host or cells: HeLa cell extract", "T4 sequence (P41250 37-739)": "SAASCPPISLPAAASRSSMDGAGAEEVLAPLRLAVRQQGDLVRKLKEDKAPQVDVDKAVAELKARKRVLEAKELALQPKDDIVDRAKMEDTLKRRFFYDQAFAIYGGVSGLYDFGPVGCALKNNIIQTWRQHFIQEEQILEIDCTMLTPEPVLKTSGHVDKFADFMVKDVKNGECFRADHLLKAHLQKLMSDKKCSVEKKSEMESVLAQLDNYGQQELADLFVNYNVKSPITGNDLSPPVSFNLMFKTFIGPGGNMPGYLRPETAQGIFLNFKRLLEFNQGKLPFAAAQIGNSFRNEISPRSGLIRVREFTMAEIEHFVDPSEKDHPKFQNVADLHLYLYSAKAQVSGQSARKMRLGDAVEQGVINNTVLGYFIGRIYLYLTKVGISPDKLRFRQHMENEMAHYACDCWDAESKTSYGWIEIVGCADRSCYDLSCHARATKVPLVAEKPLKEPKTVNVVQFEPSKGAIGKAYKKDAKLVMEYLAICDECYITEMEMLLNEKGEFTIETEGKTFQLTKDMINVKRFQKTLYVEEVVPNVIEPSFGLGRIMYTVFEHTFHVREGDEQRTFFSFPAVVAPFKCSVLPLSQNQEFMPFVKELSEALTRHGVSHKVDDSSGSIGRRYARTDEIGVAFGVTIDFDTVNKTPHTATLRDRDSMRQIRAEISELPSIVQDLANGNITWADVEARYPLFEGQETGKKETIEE", "settings": "protein GARS; HeLa"}, "[5]": {"target": "T5, HeLa cell extract proteins (Homo sapiens, UniProt Q9BTT0)", "T5 construct": "endogenous in cells; host or cells: HeLa cell extract", "T5 sequence (Q9BTT0 whole entry)": "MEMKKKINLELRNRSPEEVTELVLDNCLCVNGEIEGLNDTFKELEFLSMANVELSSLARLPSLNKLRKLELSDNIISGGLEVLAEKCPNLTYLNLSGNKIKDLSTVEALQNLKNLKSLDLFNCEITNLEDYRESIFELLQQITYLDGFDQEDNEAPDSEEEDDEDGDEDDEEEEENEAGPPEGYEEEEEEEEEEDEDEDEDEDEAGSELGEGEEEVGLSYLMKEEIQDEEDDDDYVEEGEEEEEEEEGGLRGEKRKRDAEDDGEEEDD"}, "[6]": {"target": "T6, HeLa cell extract proteins (Homo sapiens, UniProt Q9BWD1)", "T6 construct": "endogenous in cells; host or cells: HeLa cell extract", "T6 sequence (Q9BWD1 whole entry)": "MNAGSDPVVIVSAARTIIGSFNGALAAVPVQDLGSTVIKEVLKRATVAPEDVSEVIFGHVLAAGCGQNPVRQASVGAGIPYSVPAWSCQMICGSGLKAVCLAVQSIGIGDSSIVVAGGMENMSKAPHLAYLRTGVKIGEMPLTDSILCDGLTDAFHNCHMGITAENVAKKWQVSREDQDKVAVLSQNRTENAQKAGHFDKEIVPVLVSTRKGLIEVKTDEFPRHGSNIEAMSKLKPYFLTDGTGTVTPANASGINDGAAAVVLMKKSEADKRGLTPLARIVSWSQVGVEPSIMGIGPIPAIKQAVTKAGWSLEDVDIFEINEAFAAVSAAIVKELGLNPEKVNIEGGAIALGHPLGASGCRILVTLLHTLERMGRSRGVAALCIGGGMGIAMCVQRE"}, "[7]": {"target": "T7, HeLa cell extract proteins (Homo sapiens, UniProt P69905)", "T7 construct": "endogenous in cells; host or cells: HeLa cell extract", "T7 sequence (P69905 whole entry)": "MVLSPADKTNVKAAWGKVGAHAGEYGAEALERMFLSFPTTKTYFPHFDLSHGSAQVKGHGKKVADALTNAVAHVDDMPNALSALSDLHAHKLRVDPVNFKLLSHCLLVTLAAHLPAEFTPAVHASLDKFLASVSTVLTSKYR"}, "[8]": {"target": "T8, HeLa cell extract proteins (Homo sapiens, UniProt P61088)", "T8 construct": "endogenous in cells; host or cells: HeLa cell extract", "T8 sequence (P61088 1-152)": "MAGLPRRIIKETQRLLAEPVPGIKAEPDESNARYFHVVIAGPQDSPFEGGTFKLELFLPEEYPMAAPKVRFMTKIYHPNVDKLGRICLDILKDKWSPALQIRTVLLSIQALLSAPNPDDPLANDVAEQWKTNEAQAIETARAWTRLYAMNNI"}, "[9]": {"settings": "HeLa, protein HBA1 (HEMOGLOBIN SUBUNIT ALPHA)"}}, "note": "Read-outs that look alike come from different tables or passages of the source.", "data": [{"molecule": "Nc1nc2cccc(-c3ccccc3)c2n1Cc1ccc(Cl)c(Cl)c1", "note": "[compound 3]", "values": [{"measurement": "fold changes relative to vehicle control", "setting": "[1]", "result": 1}, {"measurement": "fold changes relative to vehicle control", "setting": "[2]", "result": 0.93}, {"measurement": "fold changes relative to vehicle control", "setting": "[3]", "result": 0.85, "unit": "fold"}, {"measurement": "fold changes relative to vehicle control", "setting": "[4]", "result": 0.93}]}, {"molecule": "CCCCCCOc1ccc(Cc2cnc(N)nc2N)cc1", "note": "[compound 1]", "values": [{"measurement": "fold changes relative to vehicle control", "setting": "[1]", "result": 0.92}, {"measurement": "fold changes relative to vehicle control", "setting": "[2]", "result": 0.88}, {"measurement": "fold changes relative to vehicle control", "setting": "[3]", "result": 1.53, "unit": "fold"}, {"measurement": "fold changes relative to vehicle control", "setting": "[4]", "result": 1.14}]}, {"molecule": "NCCCNc1ccc(C(=O)NC(CCC(=O)O)C(=O)O)cc1", "note": "(stereo not shown) [compound 7]", "values": [{"measurement": "fold changes relative to vehicle control", "setting": "[5]; HeLa, protein ANP32E", "result": 0.72}, {"measurement": "fold changes relative to vehicle control", "setting": "[6]; HeLa, protein ACAT2", "result": 1.12}, {"measurement": "fold changes relative to vehicle control", "setting": "[7]; [9]", "result": 0.76}, {"measurement": "fold changes relative to vehicle control", "setting": "[8]; HeLa, protein UBE2N", "result": 1.19}]}, {"molecule": "CCCCCCOc1cccc(Cc2cnc(N)nc2N)c1", "note": "[compound 2]", "values": [{"measurement": "fold changes relative to vehicle control", "setting": "[1]", "result": 0.91}, {"measurement": "fold changes relative to vehicle control", "setting": "[2]", "result": 0.91}, {"measurement": "fold changes relative to vehicle control", "setting": "[3]", "result": 3.16, "unit": "fold"}, {"measurement": "fold changes relative to vehicle control", "setting": "[4]", "result": 1.74}]}, {"molecule": "NCCOCCOCC(=O)Nc1nc2ncc(CNc3ccc(C(=O)NC(CCC(=O)O)C(=O)O)cc3)nc2c(=O)[nH]1", "note": "(stereo not shown) [compound 6]", "values": [{"measurement": "fold changes relative to vehicle control", "setting": "[5]; HeLa, protein ANP32E", "result": 0.91}, {"measurement": "fold changes relative to vehicle control", "setting": "[6]; HeLa, protein ACAT2", "result": 1.17}, {"measurement": "fold changes relative to vehicle control", "setting": "[7]; [9]", "result": 1.05}, {"measurement": "fold changes relative to vehicle control", "setting": "[8]; HeLa, protein UBE2N", "result": 1.78}]}, {"molecule": "Nc1nc2[nH]cc(CCc3ccc(C(=O)N[C@@H](CCC(=O)O)C(=O)O)cc3)c2c(=O)[nH]1", "note": "[PTX, pemetrexed]", "values": [{"measurement": "fold changes relative to vehicle control", "setting": "[5]", "result": 0.76}, {"measurement": "fold changes relative to vehicle control", "setting": "[6]", "result": 0.82}, {"measurement": "fold changes relative to vehicle control", "setting": "[7]", "result": 0.97}, {"measurement": "fold changes relative to vehicle control", "setting": "[8]", "result": 1.83}]}, {"molecule": "Nc1nc2c(c(=O)[nH]1)N(C=O)C(CNc1ccc(C(=O)N[C@@H](CCC(=O)O)C(=O)O)cc1)CN2", "note": "(stereo partly shown) [LEU, leucovorin]", "values": [{"measurement": "fold changes relative to vehicle control", "setting": "[5]; HeLa, protein ANP32E", "result": 0.89}, {"measurement": "fold changes relative to vehicle control", "setting": "[6]; HeLa, protein ACAT2", "result": 1.06}, {"measurement": "fold changes relative to vehicle control", "setting": "[7]; [9]", "result": 1.29}, {"measurement": "fold changes relative to vehicle control", "setting": "[8]; HeLa, protein UBE2N", "result": 1.06}]}]}
